Patent US9040712B2, “Thiadiazole analogs thereof and methods for treating SMN-deficiency-related-conditions” (NOVARTIS AG, priority 2013, dated 2015)
Counter-ions that a name gives are not always drawn.

System: SMN protein
Test: cellular SMN ELISA (SMN protein elevation)
Assay type: cell-based
Conditions: myoblast cell line derived from SMNdelta7 mouse model; 24 hours compound treatment; concentration range 100 pM-10 uM
Protocol: A cellular SMN ELISA was used to measure the effects of low molecular weight compounds on SMN protein elevation. Cells from a myoblast cell line derived from the SMNdelta7 mouse model (kind gift from Steve Burden, NYU) were seeded into a 384-well plate at a density of 3000 cells/well and treated with compounds for 24 hours. ELISA capture plates were prepared by coating 384-well plates (Immulon 4HBX) with 0.5 ug/mL of anti-SMN mAb (BD Science, Catalog number 610647) at 4° C. overnight. The plates were washed 5 times with 110 uL of PBS-Tween (0.05% Tween-20, PBST), blocked with 100 uL of 1% BSA in PBST for 2 hours and washed (5 times) with 100 uL of PBST. After 24 hours of compound treatment cells were lysed in a modified RIPA-buffer, on ice for 1 hour. 20 uL of lysate and 20 uL of 1% BSA were then added to the ELISA capture plates and incubated at 4° C. overnight. Plates were washed (5 times) with PBST and then incubated with 1:100 dilution of primary rabbit anti-SMN polyclonal antibody (Santa cruz, Catalog number SC-15320) at room temperature for 1 hour and subsequently washed (5 times) with 110 uL of PBST. This was followed by addition of 1:100 Goat anti-Rabbit IgG-HRP linked (Cell Signaling, Catalog number 7074) secondary antibody for 1 hour. Plates were then washed with PBST and incubated with 40 uL TMB substrate (Cell Signaling, Catalog number 7004L) at room temperature for 1-10 minutes with shaking. The reaction was stopped by addition of 40 uL of stop solution (Cell signaling, Catalog number 7002L) and absorption was measured at 450 nm. Data was reported as fold activation over DMSO control and EC50. ELISA assay condition: compound concentration range 100 pM-10 uM.

Question: With `CN(c1nnc(-c2ccc(-n3ccnn3)cc2Cl)s1)C1CC(C)(C)NC(C)(C)C1` [Example 66, 5-(2-chloro-4-(1H-1,2,3-triazol-1-yl)phenyl)-N-methyl-N-(2,2,6,6-tetramethylpiperidin-4-yl)-1,3,4-thiadiazol-2-amine] as the molecule, how does the EC50 read?
Answer: The EC50 was 130 nM.

Question: What about the “SMN Activity Fold (fold activation over DMSO control)” value (“SMN Activity Fold” for short) of the same molecule?
Answer: Its value is 2.32 fold.

Question: How did the EC50 turn out when `Oc1ccc2cc(-c3nnc(N4C[C@H]5CNC[C@H]5C4)s3)c(O)cc2c1` [Example 21, 3-(5-((3aR,6aS)-Hexahydropyrrolo[3,4-c]pyrrol-2(1H)-yl)-1,3,4-thiadiazol-2-yl)naphthalene-2,7-diol] was run?
Answer: Its EC50 is 323 nM.

Question: What about the “SMN Activity Fold” value of the same molecule?
Answer: Its value is 2.66 fold.

Question: For `CN(c1nnc(-c2ccc(-c3cn[nH]c3)cc2O)s1)C1CC(C)(C)NC(C)(C)C1` [Example 93, 2-(5-(methyl(2,2,6,6-tetramethylpiperidin-4-yl)amino)-1,3,4-thiadiazol-2-yl)-5-(1H-pyrazol-4-yl)phenol], which EC50 is on record?
Answer: Its EC50 is 404 nM.

Question: And the “SMN Activity Fold” value?
Answer: The value was 2.47 fold.

Question: Which EC50 does the source give for `Oc1cc(-n2cccn2)ccc1-c1nnc(N2CCNCC2)s1` [Example 30, 2-(5-(piperazin-1-yl)-1,3,4-thiadiazol-2-yl)-5-(1H-pyrazol-1-yl)phenol] here?
Answer: Its EC50 is 6560 nM.

Question: And the “SMN Activity Fold” value?
Answer: The value was 1.98 fold.

Question: How did the EC50 turn out when `COc1cc(-c2ccc(-c3nnc(N(C)C4CC(C)(C)NC(C)(C)C4)s3)c(OC)c2)ccn1` [Example 77, 5-(2-methoxy-4-(2-methoxypyridin-4-yl)phenyl)-N-methyl-N-(2,2,6,6-tetramethyl-piperidin-4-yl)-1,3,4-thiadiazol-2-amine] was run?
Answer: The EC50 was 52 nM.

Question: What about the “SMN Activity Fold” value of the same molecule?
Answer: The value was 3.33 fold.

Question: For `CN(c1nnc(-c2ccc(-c3cn[nH]c3)cc2Cl)s1)C1CC(C)(C)NC(C)(C)C1` [Example 40, 5-(2-chloro-4-(1H-pyrazol-4-yl)phenyl)-N-methyl-N-(2,2,6,6-tetramethylpiperidin-4-yl)-1,3,4-thiadiazol-2-amine], which EC50 is on record?
Answer: Its EC50 is 34 nM.

Question: What about the “SMN Activity Fold” value of the same molecule?
Answer: Its value is 2.55 fold.

Question: What does the source list for `CN(c1nnc(-c2ccc(-c3cnn(C)c3)cc2O)s1)C1CC(C)(C)NC(C)(C)C1` [Example 15, 2-(5-(Methyl(2,2,6,6-tetramethylpiperidin-4-yl)amino)-1,3,4-thiadiazol-2-yl)-5-(1-methyl-1H-pyrazol-4-yl)phenol]?
Answer: EC50: 32 nM; SMN Activity Fold (fold activation over DMSO control): 3.14 fold

Question: What does the source list for `CN(c1nnc(-c2cc3ccccc3[nH]c2=O)s1)C1CC(C)(C)NC(C)(C)C1` [Example 103, 3-(5-(methyl(2,2,6,6-tetramethylpiperidin-4-yl)amino)-1,3,4-thiadiazol-2-yl)quinolin-2(1H)-one]?
Answer: EC50: 161 nM; SMN Activity Fold (fold activation over DMSO control): 2.47 fold

Question: For `CN(c1nnc(-c2ccc(-c3ccc(O)nc3)cc2O)s1)C1CC(C)(C)NC(C)(C)C1` [Example 19, 5-(3-Hydroxy-4-(5-(methyl(2,2,6,6-tetramethyl-piperidin-4-yl)amino)-1,3,4-thiadiazol-2-yl)phenyl)pyridin-2-ol], which EC50 is on record?
Answer: The EC50 was 51 nM.

Question: And the “SMN Activity Fold” value?
Answer: Its value is 2.85 fold.

Question: For `Cn1cc(-c2ccc(-c3nnc(NC4CC(C)(C)NC(C)(C)C4)s3)c(Cl)c2)cn1` [Example 27, 5-(2-chloro-4-(1-methyl-1H-pyrazol-4-yl)phenyl)-N-(2,2,6,6-tetramethylpiperidin-4-yl)-1,3,4-thiadiazol-2-amine], which EC50 is on record?
Answer: Its EC50 is 193 nM.

Question: What about the “SMN Activity Fold” value of the same molecule?
Answer: Its value is 2.48 fold.

Question: `CN(c1nnc(-c2cc3c(cc2O)C(=O)CC3)s1)C1CC(C)(C)NC(C)(C)C1` [Example 92, 6-hydroxy-5-(5-(methyl(2,2,6,6-tetramethylpiperidin-4-yl)amino)-1,3,4-thiadiazol-2-yl)-2,3-dihydro-1H-inden-1-one] was tested. Which EC50 did it give?
Answer: The EC50 was 91 nM.

Question: What about the “SMN Activity Fold” value of the same molecule?
Answer: The value was 2.50 fold.

Question: How did the EC50 turn out when `Oc1cc(-c2cn[nH]c2)cc(F)c1-c1nnc(N2C[C@H]3CNC[C@H]3C2)s1` [Example 96, 3-fluoro-2-(5-((3aR,6aS)-hexahydropyrrolo[3,4-c]pyrrol-2(1H)-yl)-1,3,4-thiadiazol-2-yl)-5-(1H-pyrazol-4-yl)phenol•Di-hydrochloride salt] was run?
Answer: Its EC50 is 9 nM.

Question: And the “SMN Activity Fold” value?
Answer: Its value is 2.85 fold.

Question: `CN(c1nnc(-c2cc(F)c(-c3cn[nH]c3)cc2F)s1)C1CC(C)(C)NC(C)(C)C1` [Example 50, 5-(2,5-difluoro-4-(1H-pyrazol-4-yl)phenyl)-N-methyl-N-(2,2,6,6-tetramethylpiperidin-4-yl)-1,3,4-thiadiazol-2-amine] was tested. Which EC50 did it give?
Answer: Its EC50 is 20 nM.

Question: And the “SMN Activity Fold” value?
Answer: The value was 3.07 fold.

Question: How did the EC50 turn out when `COc1cc2ncccc2cc1-c1nnc(N(C)C2CC(C)(C)NC(C)(C)C2)s1` [Example 31, 5-(7-Methoxyquinolin-6-yl)-N-methyl-N-(2,2,6,6-tetramethylpiperidin-4-yl)-1,3,4-thiadiazol-2-amine] was run?
Answer: The EC50 was 113 nM.

Question: And the “SMN Activity Fold” value?
Answer: The value was 2.43 fold.

Question: Which results are given for `Cn1cc(-c2ccc(-c3nnc(N4CC5(CCCNC5)C4)s3)c(O)c2)cn1` [Example 94, 2-(5-(2,6-diazaspiro[3.5]nonan-2-yl)-1,3,4-thiadiazol-2-yl)-5-(1-methyl-1H-pyrazol-4-yl)phenol]?
Answer: EC50: 155 nM; SMN Activity Fold (fold activation over DMSO control): 2.59 fold

Question: Which EC50 does the source give for `COc1cc(-n2cccn2)ccc1-c1nnc(C2=CCNCC2)s1` [Example 29, 2-(2-Methoxy-4-(1H-pyrazol-1-yl)phenyl)-5-(1,2,3,6-tetrahydropyridin-4-yl)-1,3,4-thiadiazole] here?
Answer: Its EC50 is 879 nM.

Question: And the “SMN Activity Fold” value?
Answer: Its value is 2.46 fold.

Question: What does the source list for `COc1cc(-c2ccn(C)c(=O)c2)ccc1-c1nnc(OC2CC(C)(C)NC(C)(C)C2)s1` [Example 38, 4-(3-methoxy-4-(5-((2,2,6,6-tetramethyl-piperidin-4-yl)oxy)-1,3,4-thiadiazol-2-yl)phenyl)-1-methylpyridin-2(1H)-one]?
Answer: EC50: 1520 nM; SMN Activity Fold (fold activation over DMSO control): 2.12 fold

Question: How did the EC50 turn out when `CN(c1nnc(-c2cc(F)c(-c3cn[nH]c3)cc2Cl)s1)C1CC(C)(C)NC(C)(C)C1` [Example 54, 5-(2-chloro-5-fluoro-4-(1H-pyrazol-4-yl)phenyl)-N-methyl-N-(2,2,6,6-tetramethylpiperidin-4-yl)-1,3,4-thiadiazol-2-amine] was run?
Answer: The EC50 was 47 nM.

Question: What about the “SMN Activity Fold” value of the same molecule?
Answer: The value was 3.16 fold.

Question: `COc1ccc(-c2ccc(-c3nnc(N(C)C4CC(C)(C)NC(C)(C)C4)s3)c(Cl)c2)cn1` [Example 44, 5-(2-chloro-4-(6-methoxypyridin-3-yl)phenyl)-N-methyl-N-(2,2,6,6-tetramethylpiperidin-4-yl)-1,3,4-thiadiazol-2-amine] was tested. Which EC50 did it give?
Answer: Its EC50 is 4920 nM.

Question: And the “SMN Activity Fold” value?
Answer: Its value is 2.26 fold.

Question: What does the source list for `CN1CCC2(CCCN(c3nnc(-c4ccc(-c5cn[nH]c5)cc4Cl)s3)C2)C1` (stereo not drawn) [Example 83, 2-(2-chloro-4-(1H-pyrazol-4-yl)phenyl)-5-(2-methyl-2,7-diazaspiro[4.5]decan-7-yl)-1,3,4-thiadiazole]?
Answer: EC50: 3280 nM; SMN Activity Fold (fold activation over DMSO control): 2.59 fold

Question: For `Clc1cc(-c2cn[nH]c2)ccc1-c1nnc(N2C[C@H]3CNC[C@H]3C2)s1` [Example 105, 2-(2-chloro-4-(1H-pyrazol-4-yl)phenyl)-5-((3aR,6aS)-hexahydropyrrolo[3,4-c]pyrrol-2(1H)-yl)-1,3,4-thiadiazole Hydrochloride Salt], which EC50 is on record?
Answer: The EC50 was 181 nM.

Question: And the “SMN Activity Fold” value?
Answer: The value was 2.21 fold.
